SMILES strings stand for the structures.

By IC50 is commonly meant the concentration needed to halve the response being measured. The melting point is the temperature of the solid-liquid transition.

The target in the first data set is T1, human PDE10A (Homo sapiens, UniProt Q9Y233).
T1 construct: The human PDE10A full length assay; purchased Enzo Life Science, Lausen, Switzerland SE-534
T1 sequence (Q9Y233 1-779 isoform Q9Y233-1): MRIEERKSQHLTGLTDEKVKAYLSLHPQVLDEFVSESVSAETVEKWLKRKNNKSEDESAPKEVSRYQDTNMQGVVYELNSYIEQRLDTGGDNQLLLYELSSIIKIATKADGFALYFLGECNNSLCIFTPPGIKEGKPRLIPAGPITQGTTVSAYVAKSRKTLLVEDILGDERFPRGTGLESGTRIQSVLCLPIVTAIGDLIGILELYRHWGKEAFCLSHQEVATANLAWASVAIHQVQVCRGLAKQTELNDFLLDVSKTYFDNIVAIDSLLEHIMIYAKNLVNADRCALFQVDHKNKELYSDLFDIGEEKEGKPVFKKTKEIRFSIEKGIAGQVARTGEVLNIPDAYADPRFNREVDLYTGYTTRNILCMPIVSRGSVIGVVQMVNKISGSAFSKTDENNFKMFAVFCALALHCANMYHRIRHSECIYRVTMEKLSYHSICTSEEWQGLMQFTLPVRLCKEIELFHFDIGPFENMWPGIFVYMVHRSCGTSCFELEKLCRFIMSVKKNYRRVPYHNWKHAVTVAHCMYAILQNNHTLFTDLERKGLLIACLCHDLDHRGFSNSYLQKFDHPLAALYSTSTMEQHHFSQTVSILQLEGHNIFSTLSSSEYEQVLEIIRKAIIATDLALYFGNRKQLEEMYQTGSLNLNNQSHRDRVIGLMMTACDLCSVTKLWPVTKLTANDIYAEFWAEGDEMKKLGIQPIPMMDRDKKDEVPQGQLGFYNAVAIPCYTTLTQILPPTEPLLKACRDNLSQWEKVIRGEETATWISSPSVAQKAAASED
The data set is described as follows: human PDE10A full length Scintillation Proximity Assay (SPA). The data set is classed as biochemical. The conditions noted are these: 50 nM cGMP and 50 nM [3H]-cGMP, 20 minutes at room temperature; read-out: PDE10A inhibition IC50. A digest of the protocol: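 Full-length enzyme at 3.75 ng/well in 20 mM HEPES pH 7.5, 10 mM MgCl2, 0.05 mg/ml BSA, with 50 nM cGMP plus 50 nM [3H]-cGMP substrate, 20 min at room temperature. Stopped with YSi-SPA beads in zinc sulphate and counted by scintillation. IC50 from inhibitor concentration series; no-enzyme wells define background.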
A general note: In a scintillation proximity assay essentially only radioactivity close to the scintillant gives light.
For the compound `Cc1ncc(Cl)c(C(=O)Nc2ccn3cc(-c4ccccc4)nc3n2)n1` [Example 79, 5-Chloro-2-methyl-N-(2-phenylimidazo[1,2-a]pyrimidin-7-yl)pyrimidine-4-carboxamide], the IC50 is 247 nM.

As for `Cc1cc(C(=O)Nc2ccn3cc(-c4ccccc4)nc3n2)cc(Cl)n1` [Example 81, 2-Chloro-6-methyl-N-(2-phenylimidazo[1,2-a]pyrimidin-7-yl)isonicotinamide], the IC50 is 703 nM.

Consider `Cc1cc(C(=O)Nc2ccn3cc(-c4ccccc4)nc3n2)ccn1` [Example 80, 2-Methyl-N-(2-phenylimidazo[1,2-a]pyrimidin-7-yl)isonicotinamide], for which the concentration for half-maximal inhibition (IC50) is 496 nM.

On to `COc1ncccc1C(=O)Nc1ccn2cc(-c3ccccc3)nc2n1` [Example 78, 2-Methoxy-N-(2-phenylimidazo[1,2-a]pyrimidin-7-yl)nicotinamide], for which the IC50 was 125 nM.

On to `Cn1ccc(CNC(=O)c2cnn(C)c2C(=O)Nc2ccn3cc(-c4ccccc4)nc3n2)n1` [Example 157, 1-methyl-N-4-((1-methyl-1H-pyrazol-3-yl)methyl)-N5-(2-phenylimidazo[1,2-a]pyrimidin-7-yl)-1H-pyrazole-4,5-dicarboxamide], for which the concentration for half-maximal inhibition (IC50) was determined as 389 nM.

For `CCCn1ncc(Cl)c1C(=O)Nc1ccn2cc(-c3ccccc3)nc2n1` [Example 8, 4-Chloro-2-propyl-2H-pyrazole-3-carboxylic acid (2-phenyl-imidazo[1,2-a]pyrimidin-7-yl)-amide], the IC50 amounted to 64.7 nM.

Regarding `Cn1ncc(C(=O)NC2(C)COC2)c1C(=O)Nc1ccn2cc(-c3ccccc3)nc2n1` [Example 134, 1-methyl-N4-(3-methyloxetan-3-yl)-N5-(2-phenylimidazo[1,2-a]pyrimidin-7-yl)-1H-pyrazole-4,5-dicarboxamide], the IC50 came to 57.6 nM.

Turning to `CN(C)C(=O)c1cnn(C)c1C(=O)Nc1ccn2cc(-c3ccccc3)nc2n1` [Example 75, 2-Methyl-2H-pyrazole-3,4-dicarboxylic acid 4-dimethylamide 3-[(2-phenyl-imidazo[1,2-a]pyrimidin-7-yl)-amide]], the IC50 came out at 4.9 nM.

Take `CN(CCF)C(=O)c1cnn(C)c1C(=O)Nc1ccn2cc(-c3ccccc3)nc2n1` [Example 95, 2-Methyl-2H-pyrazole-3,4-dicarboxylic acid 4-[(2-fluoro-ethyl)-methyl-amide]3-[(2-phenyl-imidazo[1,2-a]pyrimidin-7-yl)-amide]]: the 50% inhibitory concentration (IC50) turned out to be 12.2 nM.

In the case of `O=C(Nc1ccn2cc(-c3ccccc3)nc2n1)c1nn[nH]c1C(=O)NC1COC1` [Example 141, N5-(oxetan-3-yl)-N4-(2-phenylimidazo[1,2-a]pyrimidin-7-yl)-1H-1,2,3-triazole-4,5-dicarboxamide], the IC50 came out at 151 nM.

As to `COC(=O)c1[nH]nnc1C(=O)Nc1ccn2cc(-c3ccccc3)nc2n1` [Example 26, 5-(2-Phenyl-imidazo[1,2-a]pyrimidin-7-ylcarbamoyl)-3H-[1,2,3]triazole-4-carboxylic acid methyl ester], the 50% inhibitory concentration (IC50) stood at 24 nM.

Regarding `Cn1ncc(C(=O)NCc2ccno2)c1C(=O)Nc1ccn2cc(-c3ccccc3)nc2n1` [Example 131, N4-(isoxazol-5-ylmethyl)-1-methyl-N5-(2-phenylimidazo[1,2-a]pyrimidin-7-yl)-1H-pyrazole-4,5-dicarboxamide], the IC50 was 35.1 nM.

As to `CC(C)NC(=O)c1cnn(C)c1C(=O)Nc1ccn2cc(-c3ccccc3)nc2n1` [Example 60, 2-Methyl-2H-pyrazole-3,4-dicarboxylic acid 4-isopropylamide 3-[(2-phenyl-imidazo[1,2-a]pyrimidin-7-yl)-amide]], the half-inhibitory concentration (IC50) came out at 80.6 nM.

For `COCCN(C)C(=O)c1cnn(C)c1C(=O)Nc1ccn2cc(-c3cccc(OCCF)c3)nc2n1` [Example 96, 2-Methyl-2H-pyrazole-3,4-dicarboxylic acid 3-({2-[3-(2-fluoro-ethoxy)-phenyl]-imidazo[1,2-a]pyrimidin-7-yl}-amide) 4-[(2-methoxy-ethyl)-methyl-amide]], the IC50 was found to be 12.6 nM.

As to `Cn1ncc(C(=O)NCCF)c1C(=O)Nc1ccn2cc(-c3ccccc3)nc2n1` [Example 123, N4-(2-fluoroethyl)-1-methyl-N5-(2-phenylimidazo[1,2-a]pyrimidin-7-yl)-1H-pyrazole-4,5-dicarboxamide], the concentration for half-maximal inhibition (IC50) is 17.3 nM.

As for `COCCNC(=O)c1[nH]nnc1C(=O)Nc1ccn2cc(-c3ccccc3)nc2n1` [Example 150, N5-(2-methoxyethyl)-N4-(2-phenylimidazo[1,2-a]pyrimidin-7-yl)-1H-1,2,3-triazole-4,5-dicarboxamide], the IC50 worked out at 263 nM.

Turning to `O=C(Nc1ccn2cc(-c3ccccc3)nc2n1)c1noc2c1CCCC2` [Example 18, 4,5,6,7-Tetrahydro-benzo[d] isoxazole-3-carboxylic acid (2-phenyl-imidazo[1,2-a]pyrimidin-7-yl)-amide], the IC50 came to 147 nM.

In the case of `Cn1cc(C(=O)Nc2ccn3cc(-c4ccccc4)nc3n2)c(C(=O)N2CCC2)n1` [Example 66, 3-(Azetidine-1-carbonyl)-1-methyl-1H-pyrazole-4-carboxylic acid (2-phenyl-imidazo[1,2-a]pyrimidin-7-yl)-amide], the concentration for half-maximal inhibition (IC50) worked out at 11.5 nM.

With `CCC(C)n1ncc(Cl)c1C(=O)Nc1ccn2cc(-c3ccccc3)nc2n1` (stereo not shown) [Example 11, 2-sec-Butyl-4-chloro-2H-pyrazole-3-carboxylic acid (2-phenyl-imidazo[1,2-a]pyrimidin-7-yl)-amide], the IC50 is 105 nM.

In the case of `CCN(C)C(=O)c1cnn(C)c1C(=O)Nc1ccn2cc(-c3cccc(OC)c3)nc2n1` [Example 87, N-4-ethyl-N5-(2-(3-methoxyphenyl)imidazo[1,2-a]pyrimidin-7-yl)-N-4,1-dimethyl-1H-pyrazole-4,5-dicarboxamide], the 50% inhibitory concentration (IC50) came out at 5.5 nM.

Turning to `C=CCn1ncc(C(=O)N2CCC2)c1C(=O)Nc1ccn2cc(-c3ccccc3)nc2n1` [Example 120, 1-allyl-4-(azetidine-1-carbonyl)-N-(2-phenylimidazo[1,2-a]pyrimidin-7-yl)-1H-pyrazole-5-carboxamide], the IC50 came to 13.7 nM.

On to `Cn1ncc(C(=O)N2CC(O)C2)c1C(=O)Nc1ccn2cc(-c3ccccc3)nc2n1` [Example 36, 4-(3-Hydroxy-azetidine-1-carbonyl)-2-methyl-2H-pyrazole-3-carboxylic acid (2-phenyl-imidazo[1,2-a]pyrimidin-7-yl)-amide], for which the half-inhibitory concentration (IC50) turned out to be 32 nM.

With `Cc1ccc(CNC(=O)c2cnn(C)c2C(=O)Nc2ccn3cc(-c4ccccc4)nc3n2)nc1` [Example 155, 1-methyl-N4-((5-methylpyridin-2-yl)methyl)-N5-(2-phenylimidazo[1,2-a]pyrimidin-7-yl)-1H-pyrazole-4,5-dicarboxamide], the IC50 is 346 nM.

As for `CCN(C)C(=O)c1cnn(C)c1C(=O)Nc1ccn2cc(-c3cccc(OCCF)c3)nc2n1` [Example 89, 2-Methyl-2H-pyrazole-3,4-dicarboxylic acid 4-(ethyl-methyl-amide) 3-({2-[3-(2-fluoro-ethoxy)-phenyl]imidazo[1,2-a]pyrimidin-7-yl}-amide)], the IC50 was determined as 6.1 nM.

Turning to `COCCN(C)C(=O)c1cnn(C)c1C(=O)Nc1ccn2cc(-c3cccc(OC)c3)nc2n1` [Example 101, 2-Methyl-2H-pyrazole-3,4-dicarboxylic acid 4-[(2-methoxy-ethyl)-methyl-amide]3-{[2-(3-methoxy-phenyl)-imidazo[1,2-a]pyrimidin-7-yl]amide}], the concentration for half-maximal inhibition (IC50) stood at 22 nM.

On to `Cn1ncc(C(=O)NCc2nc(C3CC3)no2)c1C(=O)Nc1ccn2cc(-c3ccccc3)nc2n1` [Example 167, N4-((3-cyclopropyl-1,2,4-oxadiazol-5-yl)methyl)-1-methyl-N5-(2-phenylimidazo[1,2-a]pyrimidin-7-yl)-1H-pyrazole-4,5-dicarboxamide], for which the half-inhibitory concentration (IC50) was 825 nM.

Tested on in another data set: not given
Assay: not given
Conditions: not given
With `Cc1ncc(Cl)c(C(=O)Nc2ccn3cc(-c4ccccc4)nc3n2)n1` [Example 79, 5-Chloro-2-methyl-N-(2-phenylimidazo[1,2-a]pyrimidin-7-yl)pyrimidine-4-carboxamide], the melting point is more than 250 °C.

Take `Cc1cc(C(=O)Nc2ccn3cc(-c4ccccc4)nc3n2)cc(Cl)n1` [Example 81, 2-Chloro-6-methyl-N-(2-phenylimidazo[1,2-a]pyrimidin-7-yl)isonicotinamide]: the melting point was 148 to 151 °C.

The compound `Cc1cc(C(=O)Nc2ccn3cc(-c4ccccc4)nc3n2)ccn1` [Example 80, 2-Methyl-N-(2-phenylimidazo[1,2-a]pyrimidin-7-yl)isonicotinamide] displayed a melting point of 255 to 257 °C.

As to `COc1ncccc1C(=O)Nc1ccn2cc(-c3ccccc3)nc2n1` [Example 78, 2-Methoxy-N-(2-phenylimidazo[1,2-a]pyrimidin-7-yl)nicotinamide], the melting point fell in the range of 225 to 226 °C.

A further data set relates to rats.
Assay: not given
The conditions noted are these: sub-chronic treatment with PCP; cited from earlier work.
Take `COc1ccc(Cc2nccc3cc(OC)c(OC)cc23)cc1OC` [papaverine, Papaverine]: the “deficits in the extra-dimensional shift learning” value is “attenuate the deficits in the extra-dimensional shift learning”.

Source of the values: US8410117B2, “Imidazopyrimidine derivatives” (Hoffmann-La Roche Inc., priority 2010, dated 2013).
